Experimental data from patent US20120122728A1, “Method Of Screening Drugs For Reversal Of Amyloid Beta Neurotoxicity” (UNIVERSITY OF CENTRAL FLORIDA RESEARCH FOUNDATION, INC., priority 2009, published 2012).

Legend:
amyloid plaque burden = details: transgenic APPsw mice; cited from earlier work
[1] = tested on: cultured embryonic rat hippocampal neurons; experiment: MEA extracellular recording of spontaneous firing of cultured hippocampal neurons exposed to Aβ; format: cell-based; design: time until spiking activity of the cells stopped: dose or concentration left out as unconfirmed
Protocol: The MEAs and accompanying accessories, including the temperature controller, stimulator, amplifier and MC_Rack V 3.5.8 data acquisition software were obtained from ALA Scientific (Westbury, N.Y.) and Multichannel Systems (Reutlingen, Germany). The MEAs comprised of a glass base that acted as a substrate, gold connector contacts and electrodes composed of titanium nitride. Rings were made of Sylgard184 (Dow Corning) (1 part curing base and 10 parts elastomer base, cured at 60 uC for 45 minutes) using glass molds and were attached onto the MEAs after surface modification. Recordings were obtained from 12-16 D. old cultures. Cultures were kept in the incubator between recording sessions.
N-1(3-[trimethoxysilyl]propyl)-diethylenetriamine (DETA) was used to modify the MEAs to enhance cell attachment since the use of synthetic substrates such as DETA, allows for reproducible and precise quantification of the culture substrate properties. Glass coverslips (18 mm diameter, Number 1; VWR) were cleaned in two steps. First, they were soaked in 50/50% HCl (37%) (VWR)/methanol (Sigma), followed by H2SO4 (98%) (VWR) treatment. Next, they were rinsed in double distilled water. The coverslips were then boiled in deionized water, rinsed with acetone, and oven dried. The MEAs were initially cleaned overnight in 2% Tergazyme (Sigma) detergent solution. They were then rinsed in distilled water and plasma cleaned in a plasma cleaner (Harrick Plasma) for 30 mins. The N-1(3-[trimethoxysilyl]propyl)-diethylenetriamine (DETA) (United Chemical Technologies) surface assembled monolayer (SAM) film was formed by the reaction of the cleaned surfaces with a 0.1% (v/v) mixture of the organosilane in toluene. The DETA/toluene solution containing the MEAs was heated to 70 uC, rinsed with toluene, reheated to 70 uC, and then oven dried. Surfaces were characterized using contact angle measurement and X-ray photoelectron spectroscopy (XPS) as described previously.
(§1) All applied procedures were approved by the Institutional Animal Care and Use Committee of UCF. The protocol was modified from previously published work concerning embryonic rat hippocampal cultures. Pregnant rats, 18 days in gestation, obtained from Charles River were euthanized with carbon dioxide and the fetuses were collected in ice cold Hibernate E (BrainBits)/B27/Glutamax™/Antibiotic-Antimycotic (Invitrogen) (dissecting medium). Each fetus was decapitated and the whole brain was transferred to fresh ice cold dissecting medium. After isolation, the hippocampi were collected in a fresh tube of dissecting medium. Hippocampal neurons were obtained by triturating the tissue using a Pasteur pipette. In order to remove any debris from damaged cells the 1 ml cell suspension was layered over a 4 ml step gradient (Optipep diluted 0.505:0.495 (v/v) with the dissecting medium and then made to 15%, 20%, 25% and 35% (v/v) in the dissecting medium) followed by centrifugation for 15 min at 800 g and 4 uC. After centrifugation, one strong band of cells was obtained. This band of cells was resuspended in culture medium (Neurobasal/B27/Glutamax™/Antibiotic-Antimycotic) and plated at a density of 100 cells/mm2 on DETA coated coverslips for patch clamp electrophysiology and at 200 cells/mm2 on the MEAs.
(§2) Different concentrations of Aβ (1-42) (Bachem) aggregates were prepared according to the protocol by Klein [1] in Neurobasal medium without phenol red, and quantified using Immunoblots. Curcumin (Cayman Chemicals) was prepared and the concentration chosen according to previously published protocols.
In all experiments with MEAs Aβ was administered to the cells on day 16 in vitro. We chose experimental paradigms similar to those used for patch clamp electrophysiology, to study the potential therapeutic effects of curcumin. In coadministration experiments, cells were exposed to a mixture of 100 nM Aβ and 1 mM Curcumin for 24 hrs, and recordings were performed. […]

[2] = tested on: cultured embryonic rat hippocampal neurons; experiment: Whole cell patch clamp electrophysiology of hippocampal neurons exposed to Aβ; format: cell-based
Text: as §1, §2
For patch clamp electrophysiology experiments, Aβ was administered to the cells on day 10 in vitro and recordings were performed after 24 hrs to obtain baseline values for control cells and Aβ treated cells. In coadministration experiments, a mixture of 100 nM Aβ and 1 mM curcumin was administered for 24 hrs after which patch clamp electrophysiology recordings were performed. In sequential administration, cells were initially exposed to freshly aggregated Aβ alone, followed by replacement of the Aβ solution with curcumin for 24 hrs patch clamp recordings were performed 24 hrs after curcumin treatment. Whole-cell patch clamp recordings were performed at room temperature in a recording chamber on the stage of a Zeiss Axioscope 2 FS Plus upright microscope as described in [44].

Aβ oligomerization [3] = target: T1, Aβ oligomerization (Homo sapiens, UniProt P05067); details: literature [20], compared with Ibuprofen; cited from earlier work
T1 sequence (P05067 672-713 limits assumed): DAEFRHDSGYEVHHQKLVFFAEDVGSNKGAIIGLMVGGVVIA

Aβ oligomerization [4] = target: T1, Aβ oligomerization; experiment: Immunoblot of Aβ oligomers; format: biochemical; details: immunoblot lane 2
Protocol: Different concentrations of Aβ (1-42) (Bachem) aggregates were prepared according to the protocol by Klein [1] in Neurobasal medium without phenol red, and quantified using Immunoblots. Curcumin (Cayman Chemicals) was prepared and the concentration chosen according to previously published protocols [20].

hippocampal cells = experiment: Cell survival (live dead assay, MTT assay) after Aβ treatment; format: cell-based, rat
Protocol: To confirm this finding a MTT assay (3-[4,5-dimethylthiazol-2-yl]-2,5-diphenyl tetrazolium bromide) was performed on the amyloid treated cells and this supported the results obtained with the live dead assay.

[5] = all measured concentrations of Aβ

Compound	amyloid plaque burden (amyloid plaque burden)	time at which drop in firing frequency reached a plateau ([1]; after curcumin and Aβ were coadministered)	time at which recovery of spontaneous firing was observed ([1]; after curcumin was applied post Aβ exposure)	ameliorating Aβ toxicity, coadministration versus administration after 24 h Aβ ([2]; low doses of curcumin)	Aβ oligomer formation and Aβ toxicity (Aβ oligomerization [3])	Aβ oligomerization in the presence of Curcumin (Aβ oligomerization [4])	cell survival compared to the control (hippocampal cells; 100 nM Aβ, 24 hours and 7 days)	cell death (hippocampal cells; high concentrations of Aβ, cells on MEAs)	time until the cells stopped firing ([1]; 50 nM Aβ, lowest concentration)	time until spiking activity of the cells stopped ([1]; Aβ, highest concentration tested)	effect on spontaneous spiking activity [1, 5]	firing frequency preceding blockade of spontaneous activity [1, 5]	outward (K+) currents ([2]; 100 nM Aβ, 24 h)	resting membrane potential ([2]; 100 nM Aβ, 24 h)	spontaneous firing ([2]; 100 nM Aβ, 24 h, 30 exposed cells)
COc1cc(/C=C/C(=O)CC(=O)/C=C/c2ccc(O)c(OC)c2)ccc1O [curcumin]	reduce amyloid plaque burden	about 18 hrs	around 10 hrs	more successful in ameliorating Aβ toxicity when coadministered with Aβ	inhibiting Aβ oligomer formation and Aβ toxicity at significantly lower concentrations than Ibuprofen	apparent inhibition of Aβ oligomerization									
Aβ: Amyloid beta (1-42) peptide (Bachem), soluble oligomer aggregates used as neurotoxicant [Aβ (1-42)]							small differences in cell survival compared to the control	high cell death	about 11 h	about 150 min	completely abolishes spontaneous spiking activity	significant increase in firing frequency	increase in the amplitude of the outward (K^+) currents	depolarization in the resting membrane potential	no spontaneous action potentials were recorded
